In the supplement of paper PMC10307832:

Tests used:
IMD-0354 + Foretinib = compound: O=C(Nc1cc(C(F)(F)F)cc(C(F)(F)F)c1)c1cc(Cl)ccc1O [IMD-0354] + COc1cc2c(Oc3ccc(NC(=O)C4(C(=O)Nc5ccc(F)cc5)CC4)cc3F)ccnc2cc1OCCCN1CCOCC1 [Foretinib] (partner 0.25 µM); assay: relative viability (nuclei count vs DMSO), 5 days (fraction); higher = more cells survive
Summary of the method: (§1)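 The day after seeding in 1536-well plates, lung cancer cell lines were treated by pin tool with a single drug, or with a fixed anchor-drug dose together with five library-drug doses (not always all listed) in √10 steps. After 5 days, a combined fix-and-stain solution (final 0.05% Triton X-100, 1% formaldehyde, 1 ug/ml Hoechst) was added. Nuclei counted on 4× images gave relative viability as treated counts over vehicle counts, reported as the median of duplicate plates.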

CX-5461 + Navitoclax = compound: Cc1cnc(CNC(=O)c2c(=O)c3ccc(N4CCCN(C)CC4)nc3n3c2sc2ccccc23)cn1 [CX-5461] + CC1(C)CCC(c2ccc(Cl)cc2)=C(CN2CCN(c3ccc(C(=O)NS(=O)(=O)c4ccc(N[C@H](CCN5CCOCC5)CSc5ccccc5)c(S(=O)(=O)C(F)(F)F)c4)cc3)CC2)C1 [Navitoclax] (partner 0.5 µM); assay: as above
Summary of the method: as §1

Row | Cell Line | relative viability (IMD-0354 + Foretinib; first compound 0.04 µM) | relative viability (IMD-0354 + Foretinib; first compound 0.1265 µM) | relative viability (IMD-0354 + Foretinib; first compound 0.4 µM) | relative viability (IMD-0354 + Foretinib; first compound 1.265 µM) | relative viability (IMD-0354 + Foretinib; first compound 4 µM) | relative viability (CX-5461 + Navitoclax; first compound 0.03162 µM) | relative viability (CX-5461 + Navitoclax; first compound 0.1 µM) | relative viability (CX-5461 + Navitoclax; first compound 0.3162 µM) | relative viability (CX-5461 + Navitoclax; first compound 1 µM) | relative viability (CX-5461 + Navitoclax; first compound 0.01 µM)
1 | NCI-H2342 | 1.08 | 0.98 | 0.794 | 0.735 | 0.453 |  |  |  |  | 
2 | LK-2 | 1.76 | 1.14 | 0.515 | 1.11 | 0.222 | 0.984 | 0.939 | 0.319 | 0.904 | 
3 | SK-LU-1 | 0.808 | 0.752 | 0.457 | 0.169 | 0.221 | 0.972 | 0.718 | 0.808 | 0.23 | 0.792
4 | HCC-366 | 0.837 | 1 | 0.441 | 0.216 | 0.046 | 1.06 | 1.16 | 1.1 | 1.11 | 1.04
5 | 201T | 1.18 | 1.18 | 1.05 | 0.235 | 0.178 | 1.22 | 1.21 | 1.18 | 1.19 | 1.18
6 | HCC-827 | 1.05 | 0.978 | 0.625 | 0.282 | 0.19 | 1.01 | 1.02 | 1.02 | 0.975 | 1.07
7 | NCI-H647 | 1.57 | 1.27 | 0.426 | 0.554 | 0.148 | 1.27 | 1.19 | 0.709 | 0.7 | 1.26
8 | NCI-H2023 | 0.938 | 0.867 | 0.571 | 0.225 | 0.0843 | 1.03 |  | 0.908 | 0.152 | 1.01
9 | NCI-H520 | 1.04 | 0.842 | 0.458 | 0.469 | 0.2 | 0.891 | 1.05 | 1.05 | 0.793 | 1.09
10 | RERF-LC-KJ | 0.934 | 0.93 | 0.568 | 0.471 | 0.214 | 0.969 | 1.17 | 0.887 | 0.837 | 0.95
11 | A-427 | 0.972 | 1.08 | 0.594 | 0.655 | 0.168 | 1.06 | 0.961 |  | 0.979 | 1.05
12 | NCI-H441 | 0.919 | 0.872 | 0.478 | 0.28 | 0.272 | 0.821 | 0.57 | 0.703 | 0.583 | 0.514
13 | NCI-H1703 | 0.407 | 0.347 | 0.368 | 0.299 | 0.16 | 1.28 | 0.932 | 1.13 | 0.313 | 1.22
14 | NCI-H1792 |  |  |  |  |  | 0.674 | 0.696 | 0.692 | 0.468 | 0.657
15 | Calu-6 | 0.941 | 0.829 | 0.579 | 0.172 | 0.101 | 0.872 | 0.743 | 0.852 | 0.157 | 0.659
16 | SW 1573 | 0.891 | 0.928 | 0.579 | 0.61 | 0.123 | 0.998 | 1.05 | 0.872 | 1.12 | 0.974
17 | PC-3 [JPC-3] | 1.07 | 1 | 0.61 | 0.376 | 0.272 | 0.861 | 0.746 | 0.784 | 0.821 | 0.86
18 | EMC-BAC-2 | 1.08 | 1 | 0.594 | 0.513 | 0.302 | 1.29 | 1.21 | 1.13 | 1.14 | 1.17
19 | NCI-H1395 | 1.08 | 0.969 | 0.98 | 0.449 | 0.306 | 0.993 | 1.16 | 0.964 | 0.63 | 1.17

Row | Cell Line | relative viability (IMD-0354 + Foretinib; first compound 0.04 µM) | relative viability (IMD-0354 + Foretinib; first compound 0.1265 µM) | relative viability (IMD-0354 + Foretinib; first compound 0.4 µM) | relative viability (IMD-0354 + Foretinib; first compound 1.265 µM) | relative viability (IMD-0354 + Foretinib; first compound 4 µM) | relative viability (CX-5461 + Navitoclax; first compound 0.03162 µM) | relative viability (CX-5461 + Navitoclax; first compound 0.1 µM) | relative viability (CX-5461 + Navitoclax; first compound 0.3162 µM) | relative viability (CX-5461 + Navitoclax; first compound 1 µM) | relative viability (CX-5461 + Navitoclax; first compound 0.01 µM)
20 | NCI-H2126 | 0.935 | 1.23 | 0.813 | 0.875 | 0.494 | 0.863 | 0.896 | 0.815 | 0.804 | 0.873
21 | NCI-H3122 | 0.959 | 0.964 | 0.722 | 0.779 | 0.129 | 1.04 | 1.03 | 1.01 | 0.97 | 0.966
22 | NCI-H1975 | 1.01 | 1.03 | 0.483 | 0.18 | 0.16 | 1.1 | 1.09 | 1.25 | 0.871 | 1.29
23 | NCI-H2170 | 1.05 | 1.03 | 1.01 | 0.841 | 0.268 | 0.585 | 0.698 | 0.532 | 0.665 | 0.627
24 | LU99A | 0.655 | 0.806 | 0.612 | 0.682 | 0.273 | 0.938 | 0.741 | 0.676 | 0.898 | 0.764
25 | NCI-H2347 | 1.11 | 0.842 | 0.523 | 0.599 | 0.513 | 0.864 | 0.858 | 0.601 | 0.73 | 0.968
26 | NCI-H2009 | 1.22 | 1.18 | 0.817 | 0.406 | 0.147 | 1.19 | 1.08 | 1.18 | 0.765 | 1.18
27 | HCC-15 | 1.03 | 0.891 | 0.636 | 0.178 | 0.152 | 0.773 | 0.713 | 0.717 | 0.656 | 0.725
28 | HCC-44 |  |  |  |  |  | 1.08 | 1.09 | 0.983 | 1.02 | 0.931
29 | COR-L23 | 0.833 | 0.844 | 0.349 | 0.138 | 0.131 | 0.981 | 0.786 | 0.978 | 0.417 | 0.966
30 | HCC-78 | 0.554 | 0.574 | 0.488 | 0.701 | 0.322 | 0.839 | 0.724 | 0.543 | 0.769 | 0.984
31 | NCI-H1299 | 1.03 | 1.06 | 0.787 | 0.267 | 0.179 | 1.06 | 1.04 | 1.04 | 1.05 | 1.1
32 | NCI-H727 | 0.94 | 0.869 | 0.659 | 0.711 | 0.477 | 0.365 | 0.464 | 0.354 | 0.31 | 0.493
33 | NCI-H2087 | 1.08 | 1.04 | 0.382 | 0.257 | 0.189 | 1.11 | 0.997 | 1.12 | 0.797 | 1.24
34 | BEN | 0.739 | 0.731 | 0.448 | 0.193 | 0.196 | 0.0627 | 0.052 | 0.0668 | 0.066 | 0.0792
35 | LCLC-103H | 0.745 | 0.865 | 0.45 | 0.335 | 0.216 |  |  |  |  | 
36 | EKVX | 0.974 | 0.975 | 0.714 | 0.0943 | 0.13 | 1.03 | 0.958 |  | 0.764 | 1.13
37 | LXF-289 | 0.945 | 0.99 | 0.646 | 0.483 | 0.129 | 0.985 | 0.995 | 0.875 | 0.957 | 0.94
38 | ABC-1 | 0.876 | 1.12 | 0.854 | 0.37 | 0.29 |  |  |  |  | 

Row | Cell Line | relative viability (IMD-0354 + Foretinib; first compound 0.04 µM) | relative viability (IMD-0354 + Foretinib; first compound 0.1265 µM) | relative viability (IMD-0354 + Foretinib; first compound 0.4 µM) | relative viability (IMD-0354 + Foretinib; first compound 1.265 µM) | relative viability (IMD-0354 + Foretinib; first compound 4 µM) | relative viability (CX-5461 + Navitoclax; first compound 0.03162 µM) | relative viability (CX-5461 + Navitoclax; first compound 0.1 µM) | relative viability (CX-5461 + Navitoclax; first compound 0.3162 µM) | relative viability (CX-5461 + Navitoclax; first compound 1 µM) | relative viability (CX-5461 + Navitoclax; first compound 0.01 µM)
39 | NCI-H650 | 1.07 | 0.961 | 0.832 | 0.515 | 0.234 |  |  |  |  | 
40 | NCI-H1650 | 1.32 | 1.1 | 0.581 | 0.207 | 0.245 | 1.02 |  | 1.23 | 0.2 | 1.29
41 | NCI-H2085 | 0.97 | 0.922 | 0.791 | 0.538 | 0.225 | 1.16 | 1.02 | 1.16 | 1.11 | 1.21
42 | NCI-H1944 | 0.873 | 0.963 | 0.887 | 0.945 | 0.154 | 1.09 | 1.01 |  | 1.02 | 1.06
43 | LC-2-ad | 0.939 | 0.885 | 0.524 | 0.249 | 0.205 | 0.533 | 0.434 | 0.553 | 0.362 | 0.449
44 | COR-L 105 | 1.25 | 0.808 | 0.67 | 0.932 | 0.296 | 0.734 | 0.768 | 0.801 | 0.689 | 0.891
45 | NCI-H1355 | 1.11 | 0.943 | 0.646 | 0.908 | 0.298 | 1.03 | 0.986 | 1.01 | 1 | 0.882
46 | H3255 | 0.836 | 1.02 | 0.785 | 0.433 | 0.283 | 0.484 | 0.533 | 0.273 | 0.397 | 0.626
47 | NCI-H1993 | 0.768 | 0.869 | 0.699 | 0.477 | 0.559 | 1 | 0.887 | 0.871 | 0.922 | 0.946
48 | NCI-H1734 | 0.928 | 0.902 | 0.548 | 0.549 | 0.19 | 0.896 | 0.887 | 0.728 | 0.761 | 0.979
49 | HOP-62 | 1.13 | 1.03 | 0.42 | 0.449 | 0.118 | 1.16 | 1.21 |  | 1.02 | 0.908
50 | LOU-NH91 | 0.976 | 0.981 | 0.575 | 0.154 | 0.134 | 0.694 | 0.735 | 0.472 | 0.575 | 0.7
51 | ChaGo-K-1 | 0.998 | 0.875 | 0.747 | 0.531 | 0.258 | 0.947 | 0.752 | 0.413 | 0.618 | 1.32
52 | NCI-H2228 | 1.05 | 0.921 | 0.416 | 0.515 | 0.17 | 0.572 | 0.513 | 0.552 | 0.0937 | 0.822
53 | NCI-H661 | 1.06 | 1.01 | 0.681 | 0.295 | 0.24 |  |  |  |  | 
54 | NCI-H1563 | 1.06 | 0.936 | 0.837 | 0.388 | 0.44 |  |  |  |  | 
55 | NCI-H358 | 0.753 | 0.828 | 0.372 | 0.163 | 0.126 |  |  |  |  | 
56 | NCI-H1623 | 0.896 | 0.908 | 0.764 | 0.687 | 0.457 |  |  |  |  | 
57 | SW 900 | 0.886 | 0.787 | 0.444 | 0.562 | 0.246 |  |  |  |  | 
